We go through 16 molecules from patent publication US8729081B2, “Compositions and methods for treating alcohol use disorders, pain and other diseases” (VM Discovery Inc., priority 2008, dated 2014).

The structures appear in SMILES notation.

In experiment [1] the target is T1, PKCε (h) (Homo sapiens, UniProt Q02156).
T1 construct: host or cells: insect cells
T1 sequence (Q02156 1-737): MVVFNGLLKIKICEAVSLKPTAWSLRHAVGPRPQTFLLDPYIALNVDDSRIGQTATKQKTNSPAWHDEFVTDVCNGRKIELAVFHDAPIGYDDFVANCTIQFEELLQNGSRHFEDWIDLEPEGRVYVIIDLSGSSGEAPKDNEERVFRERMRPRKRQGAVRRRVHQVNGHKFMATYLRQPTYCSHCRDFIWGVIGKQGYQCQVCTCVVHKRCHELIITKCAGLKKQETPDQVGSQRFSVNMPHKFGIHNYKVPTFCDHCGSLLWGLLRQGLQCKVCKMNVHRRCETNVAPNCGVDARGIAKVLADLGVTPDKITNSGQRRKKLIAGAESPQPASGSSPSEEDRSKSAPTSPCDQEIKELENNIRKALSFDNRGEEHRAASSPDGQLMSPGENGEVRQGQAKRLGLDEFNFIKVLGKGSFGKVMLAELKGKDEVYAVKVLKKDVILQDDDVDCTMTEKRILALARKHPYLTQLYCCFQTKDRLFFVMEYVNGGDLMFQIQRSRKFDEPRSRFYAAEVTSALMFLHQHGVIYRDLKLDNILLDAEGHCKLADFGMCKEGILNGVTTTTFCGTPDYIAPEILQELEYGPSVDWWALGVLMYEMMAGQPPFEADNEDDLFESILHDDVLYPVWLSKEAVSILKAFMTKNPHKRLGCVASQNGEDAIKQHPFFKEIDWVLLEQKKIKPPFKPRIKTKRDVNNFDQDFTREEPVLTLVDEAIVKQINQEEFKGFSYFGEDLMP
Description: In vitro PKCε kinase assay (radiometric, [γ-33P-ATP], HotSpot). As to conditions: recombinant human PKCε, 10 μM ATP; read-out: IC50 in antagonizing the PKCε. Type of experiment: biochemical. The procedure:
There are many in vitro commercially available and validated bioassays (Ma, H., et al, Expert Opin Drug Discov. 2008 June; 3(6): 607-621 and references therein) which can be used to characterize the activities of compounds of the present invention against PKCε protein kinase. Compounds can be tested against the activity of recombinant PKCε. In a final reaction volume of 25 μL, PKCε (h) (0.4 nM, Human recombinant protein expressed in insect cells. Mw=83.7 kDa) is incubated with kinase buffer (20 mM HEPES-HCl, pH 7.5, 10 mM MgCl2, 1 mM EGTA, 0.02% Brij35, 0.1 mM Na3VO4, 0.02 mg/ml BSA, 2 mM DTT, and 1% DMSO), 0.1 mg/mL phosphatidylserine, 10 μg/mL diacylglycerol, 20 μM S25-PKC peptide substrate (RFARKGSLRQKNV-OH, Mw=1561 Da), 10 mM MgAcetate and 10 μM [γ-33P-ATP] (specific activity approx. 500 cpm/pmol). The reaction is initiated by the addition of the MgATP mix. After incubation for 40 minutes at room temperature, the reaction is stopped by the addition of 5 μL of a 3% phosphoric acid solution. 10 μL of the reaction is then spotted onto a P30 filtermat and washed three times for 5 minutes in 75 mM phosphoric acid and once in methanol prior to drying and scintillation counting Control samples are incubated without inhibitor to measure maximal activity or with the general kinase inhibitor Staurosporine (5 μM) to measure complete inhibition. For each compound the % inhibition can be calculated by the formula, or by curve fits: % Inhibition=(Max activity−Activity with compound)/(Max activity−Activity with Control)*100. Compounds with inhibitory activity are assayed using at least 5 concentrations (1 nM-300 μM). Concentrations are adjusted to generate a complete dose-response curve. Each sample is assayed in duplicate and each experiment is repeated three times. Results are fitted by non-linear regression analysis to a sigmoidal dose-response curve with variable slope to calculate Hill slope, log IC50 and Imax values for each inhibitor, using the program Prism 5 (GraphPad Software, Inc., San Diego, Calif.).
Kinase profiling was performed using HotSpot technology (Reaction Biology Corp. 11 Malvern, Pa., USA). This technology is a radioisotope-based P81 filter-binding assay. Compound of the present invention were dissolved in pure DMSO to make a 10 mM stock, then diluted in pure DMSO to make a serial dilution based on the IC50 ranges. PKCε (h) (0.4 nM, human recombinant protein expressed in insect cells. Mw=83.7 kDa) and substrate (20 μM peptide substrate, [RFARKGSLRQKNV]) were diluted in the reaction buffer (20 mM HEPES-HCl, pH 7.5, 10 mM MgCl2, 1 mM EGTA, 0.02% Brij35, 0.1 mM Na3VO4, 0.02 mg/ml BSA, 2 mM DTT, and 1% DMSO), and then 5 nL of compound was delivered into PKCε (h) and substrate mixture by acoustic technology using Echo 550 (LabCyte Inc., Sunnyvale, Calif.). The reaction was initiated by the addition of [γ-33P-ATP] into the reaction mixture (final concentration was 10 μM) and stopped after at least 40 min incubation at room temperature. The unreacted free 33P-ATP was washed away before detection.
The intrinsic PKCε antagonist activity of a compound which may be used in the present invention may be determined by these assays. […] Such a result is indicative of the intrinsic activity of the compounds in use as antagonists of PKCε.

Experiment [2] has as its system C57BL/6J mice. The experiment can be described thus: Alcohol intake in Drink-in-Dark (DID) model. The class given is in vivo. The following applies: 4-hr drinking in the dark (DID) protocol, compared with vehicle control, FIG. 2. The source says:
FIG. 2. […] The data are presented as mean±SEM. *p<0.05, ***p<0.001 as compared with the vehicle control.
Alcohol Intake in Drink-in-Dark (DID) model (Rhodes J S, et al, Physiol Behav. (2005) 84:53-63). Mice are acclimated in animal facility and housed three to four per cage in standard cages until 1 week prior to the start of an experiment when they are transferred to individual housing. Approximately 2 weeks prior to the start of an experiment, the mice are switched to a reverse light/dark schedule such that lights turned on at 2030 h and off at 0830 h. Food (Purina 5001™) is always provided ad libitum. Water is provided ad libitum except when ethanol is substituted for water for 4 h per day. The animals are divided into 4 groups and given intraperitoneal (i.p.) injections of vehicle, and a test article (TA) at 5, 20 and 50 mg/kg body weight, respectively, starting 3 h after lights off in the animal rooms. Then the water bottles are replaced with 10 ml graduated cylinders fitted with sipper tubes containing 20% (v/v) ethanol in tap water. The ethanol cylinders remain in place for 4 h. The fluid levels are checked every 30 minutes for 4 h. After the 4-h period, the ethanol cylinders are replaced with water bottles. […] Similarly, mice are administered with TA by oral gavage and ethanol or water intake is monitored for 4 h.

For the molecule `O=C(NCCCN1CCCCCC1)c1ccc(C=C2Sc3ccccc3N(Cc3ccccc3F)C2=O)cc1` (mixture of isomers) [Compound 485, N-[3-(azepan-1-yl)propyl]-4-{(Z/E)-[4-(2-fluorobenzyl)-3-oxo-3,4-dihydro-2H-1,4-benzothiazin-2-ylidene]methyl}benzamide], in experiment [1], the IC50 lay within 10 to 1000 nM.

For `O=C(NCCCN1CCCC1)c1ccc(C=C2Oc3ccccc3N(Cc3ccccc3C(F)(F)F)C2=O)cc1` (mixture of isomers) [Compound 801, 4-[(Z/E)-{3-oxo-4-[2-(trifluoromethyl)benzyl]-3,4-dihydro-2H-1,4-benzoxazin-2-ylidene}methyl]-N-[3-(pyrrolidin-1-yl)propyl]benzamide], in experiment [1], the IC50 was in the range of 10 to 1000 nM.

As to `O=C(NCN1CCC2CCCCC2C1)c1ccc(/C=C2\Oc3ccccc3N(Cc3ccccc3F)C2=O)cc1` (mixture of isomers) [Compound 817, 4-{(Z/E)-[4-(2-fluorobenzyl)-3-oxo-3,4-dihydro-2H-1,4-benzoxazin-2-ylidene]methyl}-N-(octahydroisoquinolin-2(1H)-ylmethyl)benzamide], in experiment [1], the IC50 lay within 10 to 1000 nM.

For the molecule `CC(=C1Oc2ccccc2N(Cc2ccc(F)cc2)C1=O)c1ccc(C(=O)NCCCN2CCCCCC2)cc1` (mixture of isomers) [Compound 821, N-[3-(azepan-1-yl)propyl]-4-{(1Z/1E)-1-[4-(4-fluorobenzyl)-3-oxo-3,4-dihydro-2H-1,4-benzoxazin-2-ylidene]ethyl}benzamide], the 50% inhibitory concentration (IC50) in experiment [1] fell in the range of 10 to 1000 nM.

Regarding `O=C(NCCCc1ccncc1)c1ccc(C=C2Sc3ccccc3N(Cc3ccccc3F)C2=O)cc1` (mixture of isomers) [Compound 825, 4-{(Z/E)-[4-(2-fluorobenzyl)-3-oxo-3,4-dihydro-2H-1,4-benzothiazin-2-ylidene]methyl}-N-[3-(pyridin-4-yl)propyl]benzamide], the IC50 in experiment [1] lay in the range of 10 to 1000 nM.

For the molecule `CC(=C1Oc2ccccc2N(Cc2ccc(F)cc2)C1=O)c1ccc(C(=O)NCCCN2CCOCC2)cc1` (mixture of isomers) [Compound 829, N-4-{(1Z/1E)-1-[4-(4-fluorobenzyl)-3-oxo-3,4-dihydro-2H-1,4-benzoxazin-2-ylidene]ethyl}-N-[3-(morpholin-4-yl)propyl]benzamide], the half-maximal inhibitory concentration (IC50) in experiment [1] was in the range of 10 to 1000 nM.

Consider `CN(CCCN1CCOCC1)C(=O)c1ccc(C=C2Oc3ccccc3N(Cc3ccccc3F)C2=O)cc1` (mixture of isomers) [Compound 841, 4-{(Z/E)-[4-(2-fluorobenzyl)-3-oxo-3,4-dihydro-2H-1,4-benzoxazin-2-ylidene]methyl}-N-methyl-N-[3-(morpholin-4-yl)propyl]benzamide], for which, in experiment [1], the IC50 fell in the range of 10 to 1000 nM.

Regarding `O=C(NCCCN1CCCC1)c1ccc(/C=C2\Oc3ccccc3N(Cc3ccccc3F)C2=O)cc1` [Compound 483, 4-{(Z/E)-[4-(2-fluorobenzyl)-3-oxo-3,4-dihydro-2H-1,4-benzoxazin-2-ylidene]methyl}-N-[3-(pyrrolidin-1-yl)propyl]benzamide hydrate], the IC50 in experiment [1] fell in the range of 10 to 1000 nM.

As for `Cc1oc(-c2ccc(Cl)cc2)nc1CN1CCC(C(=O)NCCN2CCCC2)CC1` [Compound 597, 1-{[2-(4-chlorophenyl)-5-methyl-1,3-oxazol-4-yl]methyl}-N-(2-pyrrolidin-1-ylethyl)piperidine-4-carboxamide], in experiment [1], the IC50 was in the range of 10 to 1000 nM.

For `C/C(=C1/Oc2ccccc2N(Cc2ccc(F)cc2F)C1=O)c1ccc(C(=O)NCCCN2CCOCC2)cc1` [Compound 837, 4-{(1Z/1E)-1-[4-(2,4-difluorobenzyl)-3-oxo-3,4-dihydro-2H-1,4-benzoxazin-2-ylidene]ethyl}-N-[3-(morpholin-4-yl)propyl]benzamide], the IC50 in experiment [1] fell in the range of 10 to 1000 nM.

Consider `Cc1oc(-c2ccc(Cl)cc2)nc1CN1CCC(C(=O)NCCCN2CCCCCC2)CC1` [Compound 901, N-[3-(azepan-1-yl)propyl]-1-{[2-(4-chlorophenyl)-5-methyl-1,3-oxazol-4-yl]methyl}piperidine-4-carboxamide], for which the “oral intake of alcohol (20% ethanol)” value in experiment [2] was “significantly reduced”. For the same molecule, in experiment [1], the concentration for half-maximal inhibition (IC50) fell in the range of 10 to 1000 nM.

With `Cc1oc(-c2ccc(Cl)cc2)nc1CN1CCC(C(=O)NCCCN2CCC(Cc3ccccc3)CC2)CC1` [Compound 907, N-[3-(4-benzylpiperidin-1-yl)propyl]-1-{[2-(4-chlorophenyl)-5-methyl-1,3-oxazol-4-yl]methyl}piperidine-4-carboxamide], the IC50 in experiment [1] lay within 10 to 1000 nM.

For `Cc1oc(-c2cccc(Cl)c2)nc1CN1CCC(C(=O)NCCCN2CCC(Cc3cccc(Cl)c3)CC2)CC1` [Compound 911, N-{3-[4-(3-chlorobenzyl)piperidin-1-yl]propyl}-1-{[2-(3-chlorophenyl)-5-methyl-1,3-oxazol-4-yl]methyl}piperidine-4-carboxamide], the IC50 in experiment [1] lay within 10 to 1000 nM.

In the case of `Cc1oc(-c2ccc(Cl)cc2)nc1CN1CCC(C(=O)N(C)CCCN2CCCCCC2)CC1` [Compound 929, N-[3-(azepan-1-yl)propyl]-1-{[2-(4-chlorophenyl)-5-methyl-1,3-oxazol-4-yl]methyl}-N-methylpiperidine-4-carboxamide], the IC50 in experiment [1] is 10 to 1000 nM.

In the case of `Cc1oc(-c2ccc(Cl)cc2)nc1CN1CCC(C(=O)NCCCN2CCOCC2)CC1` [Compound 935, 1-{[2-(4-chlorophenyl)-5-methyl-1,3-oxazol-4-yl]methyl}-N-[3-(morpholin-4-yl)propyl]piperidine-4-carboxamide], the IC50 in experiment [1] was in the range of 10 to 1000 nM.

Turning to `Cc1oc(-c2ccc3c(c2)OCO3)nc1CN1CCC(C(=O)NCCCN2CCCCCC2)CC1` [Compound 949, N-[3-(azepan-1-yl)propyl]-1-{[2-(1,3-benzodioxol-5-yl)-5-methyl-1,3-oxazol-4-yl]methyl}piperidine-4-carboxamide], the concentration for half-maximal inhibition (IC50) in experiment [1] was 10 to 1000 nM.
